{"source": "patent US20100280056A1", "about": "“IDENTIFICATION OF SUBJECTS LIKELY TO BENEFIT FROM STATIN THERAPY” (The Govt. of the U. S. as Represented by the Secretary of …, priority 2007, published 2010)", "tested_on": "colon cancer cell lines", "test": "Total cholesterol content of colon cancer cell lines with and without atorvastatin (Cholesterol/Cholesteryl Ester Quantification Kit)", "assay_type": "cell-based", "conditions": "25 μM atorvastatin, 24 hours, serum-free medium; cell lines with rs12654264 A allele compared to T allele (FIG. 4)", "experimental": "Microsatellite stable (MSS) colon cancer cell lines (SW480, SW620, HT29, WiDr, and SW1417) were cultured in RPMI (supplemented with 10% Fetal Bovine Serum, 100 IU/mL of Penicillin, 100 IU/mL of Streptomycin, and 1× Non-Essential Amino Acid) at 37° C. in an atmosphere of 5% CO2. The cells were trypsinized and washed with PBS twice. […] The cholesterol level of each colon cancer line was measured using Cholesterol/Cholesteryl Ester Quantification Kit from Abcam (Cambridge, Mass.). Cells were plated into 6-well plates to reach approximate confluency of 70%. After overnight incubation, the cells were treated with 25 μM atorvastatin diluted in serum-free DMEM/F12 50:50 (supplemented with 100 IU/mL of Penicillin, 100 IU/mL of Streptomycin, and 1× Non-Essential Amino Acid) for 24 hours at 37° C., 5% CO2. After treatment, the cells were trypsinized and counted to 1×10^6 cells. The cells were pelleted, washed with PBS twice, and resuspended in 200 μl of pure chloroform with 1% Triton® X-100. The cell suspension was vortexed for 15 seconds, and centrifuged at maximum speed for 10 minutes. The lower (organic) phase was collected and air dried at 50° C., followed by vacuum drying for 30 minutes to remove the chloroform. The dried lipids were resuspended with 100 μl of the Cholesterol Reaction Buffer provided in the kit, and vortexed for 5 minutes vigorously at room temperature. […]", "data": [{"smiles": "CC(C)c1c(C(=O)Nc2ccccc2)c(-c2ccccc2)c(-c2ccc(F)cc2)n1CC[C@@H](O)C[C@@H](O)CC(=O)O", "note": "[atorvastatin]", "values": [{"measurement": "statin-dependent cholesterol reduction", "result": "significantly greater statin-dependent cholesterol reduction"}]}]}
